# Source: patent US20250221996A1, “HETEROCYCLIC COMPOUNDS, COMPOSITIONS THEREOF, AND METHODS OF TREATMENT THEREWITH” (BeiGene, Ltd., priority 2022, published 2025)
# Tested on: pERK1/2(THR202/TYR204) level in AsPC-1 cells
# Assay: pERK assay (HTRF) in AsPC-1 cell line
# Type: cell-based
# Details: 2 h compound treatment
# Outline: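 AsPC-1 (KRAS G12D) cells, 30000/well, seeded overnight, then treated 2 h with a 10-point series at 0 to 10 μM final. Lysate pERK1/2 (Thr202/Tyr204) detected by HTRF after overnight antibody incubation at room temperature; IC50 from percent inhibition versus log concentration.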
row,SMILES,IC50 [nM]
1,"N#Cc1c(N)sc2c(F)ccc(-c3c(C(F)(F)F)cc4c(N5CC6CCC(C5)N6)nc(OCC56COC(C(F)F)(C5)C6)nc4c3F)c12 (single isomer, unassigned) [Example 1-Isomer 1, 4-(4-(3,8-diazabicyclo[3.2.1]octan-3-yl)-2-((1-(difluoromethyl)-2-oxabicyclo[2.1.1]hexan-4-yl)methoxy)-8-fluoro-6-(trifluoromethyl)quinazolin-7-yl)-2-amino-7-fluorobenzo[b]thiophene-3-carbonitrile]",2570

# Same assay, conditions: Homo sapiens, ASPC1, 2 h, 2 h compound treatment
row,SMILES,IC50 [nM]
1,"CC(=O)N1CC(C)(COc2nc(N3CC4CCC(C3)N4)c3cc(C(F)(F)F)c(-c4ccc(F)c5sc(N)c(C#N)c45)c(F)c3n2)C1 [Example 13, 4-(2-((1-acetyl-3-methylazetidin-3-yl)methoxy)-4-(3,8-diazabicyclo[3.2.1]octan-3-yl)-8-fluoro-6-(trifluoromethyl)quinazolin-7-yl)-2-amino-7-fluorobenzo[b]thiophene-3-carbonitrile]",146
2,"COC(=O)N1CC(COc2nc(N3CC4CCC(C3)N4)c3cc(C(F)(F)F)c(-c4ccc(F)c5sc(N)c(C#N)c45)c(F)c3n2)(OC)C1 [Example 20, methyl 3-(((7-(2-amino-3-cyano-7-fluorobenzo[b]thiophen-4-yl)-4-(3,8-diazabicyclo[3.2.1]octan-3-yl)-8-fluoro-6-(trifluoromethyl)quinazolin-2-yl)oxy)methyl)-3-methoxyazetidine-1-carboxylate]",188
3,"CC(=O)N1CC2(COc3nc(N4CC5CCC(C4)N5)c4cc(C(F)(F)F)c(-c5ccc(F)c6sc(N)c(C#N)c56)c(F)c4n3)CC1C2 [Example 40, 4-(2-((2-acetyl-2-azabicyclo[2.1.1]hexan-4-yl)methoxy)-4-(3,8-diazabicyclo[3.2.1]octan-3-yl)-8-fluoro-6-(trifluoromethyl)quinazolin-7-yl)-2-amino-7-fluorobenzo[b]thiophene-3-carbonitrile]",236
4,"N#Cc1c(N)sc2c(F)ccc(-c3c(C(F)(F)F)cc4c(N5CC6CCC(C5)N6)nc(OCC5(F)COC5)nc4c3F)c12 [Example 44, 4-(4-(3,8-diazabicyclo[3.2.1]octan-3-yl)-8-fluoro-2-((3-fluorooxetan-3-yl)methoxy)-6-(trifluoromethyl)quinazolin-7-yl)-2-amino-7-fluorobenzo [b]thiophene-3-carbonitrile]",211
5,"N#Cc1c(N)sc2c(F)ccc(-c3c(C(F)(F)F)cc4c(N5CC6CCC(C5)N6)nc(OCC56COC(CO)(C5)C6)nc4c3F)c12 [Example 21, 4-(4-(3,8-diazabicyclo[3.2.1]octan-3-yl)-8-fluoro-2-((1-(hydroxymethyl)-2-oxabicyclo[2.1.1]hexan-4-yl)methoxy)-6-(trifluoromethyl)quinazolin-7-yl)-2-amino-7-fluorobenzo[b]thiophene-3-carbonitrile]",760
6,"CCC1(COc2nc(N3CC4CCC(C3)N4)c3cc(C(F)(F)F)c(-c4ccc(F)c5sc(N)c(C#N)c45)c(F)c3n2)COC1 [Example 32, 4-(4-(3,8-diazabicyclo[3.2.1]octan-3-yl)-2-((3-ethyloxetan-3-yl)methoxy)-8-fluoro-6-(trifluoromethyl)quinazolin-7-yl)-2-amino-7-fluorobenzo[b]thiophen-3-carbonitrile]",110
7,"N#Cc1c(N)sc2c(F)ccc(-c3c(C(F)(F)F)cc4c(N5CC6CCC(C5)N6)nc(OCC5(C(F)(F)F)CCOC5)nc4c3F)c12 (stereo not shown) [Example 26, 4-(4-(3,8-diazabicyclo[3.2.1]octan-3-yl)-8-fluoro-6-(trifluoromethyl)-2-((3-(trifluoromethyl)tetrahydrofuran-3-yl)methoxy)quinazolin-7-yl)-2-amino-7-fluorobenzo[b]thiophene-3-carbonitrile]",1460
8,"N#Cc1c(N)sc2c(F)ccc(-c3c(C(F)(F)F)cc4c(N5CC6CCC(C5)N6)nc(OCC5(C(F)F)COC5)nc4c3F)c12 (single isomer, unassigned) [Example 48-Isomer 2, 4-(4-(3,8-diazabicyclo[3.2.1]octan-3-yl)-2-((3-(difluoromethyl)oxetan-3-yl)methoxy)-8-fluoro-6-(trifluoromethyl)quinazolin-7-yl)-2-amino-7-fluoro benzo[b]thiophene-3-carbonitrile]",65
9,"Cn1ccnc1N1CC(COc2nc(N3CC4CCC(C3)N4)c3cc(C(F)(F)F)c(-c4ccc(F)c5sc(N)c(C#N)c45)c(F)c3n2)C1 [Example 24, 4-(4-(3,8-diazabicyclo[3.2.1]octan-3-yl)-8-fluoro-2-((1-(1-methyl-1H-imidazol-2-yl)azetidin-3-yl)methoxy)-6-(trifluoromethyl)quinazolin-7-yl)-2-amino-7-fluorobenzo[b]thiophene-3-carbonitrile]",200
